Molecules are shown by their SMILES.

Data set [1] in a line: Cmax in healthy human plasma at 200 mg, po every 12 hrs for 5 days. Format: ADME, organism-based. Set-up: dose 200 mg, route oral.
A short description of data set [2]: Cmax in healthy human alveolar cell at 200 mg, po every 12 hrs for 5 days. Format: ADME, organism-based, Lung, Pneumocyte. Set-up: dose 200 mg, route oral. Particulars: alveolar cells.
Data set [3] can be described thus: Cmax in healthy human lung epithelial lining fluid assessed as hydroxyitraconazole at 200 mg, po every 12 hrs for 5 days. The class given is ADME, organism-based. Also noted: dose 200 mg, route oral. Particulars: in vivo.
A short description of data set [4]: AUC (0 to 24 hrs) in healthy human plasma at 200 mg, po every 12 hrs for 5 days. Set-up: dose 200 mg, time < 24 hr, route oral. Format: ADME, organism-based.
Data set [5] can be described thus: AUC (0 to 24 hrs) in healthy human lung epithelial lining fluid at 200 mg, po every 12 hrs for 5 days. The class given is ADME, organism-based. Also noted: time < 24 hr, dose 200 mg, route oral.
Data set [6] in a line: AUC (0 to 24 hrs) in healthy human alveolar cell at 200 mg, po every 12 hrs for 5 days. The class given is ADME, organism-based, Pneumocyte. Also noted: time < 24 hr, dose 200 mg, route oral. Particulars: alveolar cells.

One may read the Cmax as the peak of the concentration-time curve. As usually defined, the AUC is concentration integrated over time. A higher AUC goes with more exposure. `CCC(C)n1ncn(-c2ccc(N3CCN(c4ccc(OCC5COC(Cn6cncn6)(c6ccc(Cl)cc6Cl)O5)cc4)CC3)cc2)c1=O` (stereo unspecified) [ITRACONAZOLE]: the Cmax in data set [1] is 2100 ng/mL; in data set [2], 500 ng/mL; in data set [3] it was 5500 ng/mL. The AUC at 24 h in data set [4] was 34400 ng·h/mL; in data set [5], 7400 ng·h/mL; in data set [6], 101000 ng·h/mL.

Values taken from ChEMBL document CHEMBL1629615, “Intrapulmonary pharmacokinetics and pharmacodynamics of posaconazole at steady state in healthy subjects” (Antimicrob Agents Chemother, 2009).
